Measurements from patent publication US11617777B2, “Cytotoxic and anti-mitotic compounds, and methods of using the same” (ZYMEWORKS BC INC., priority 2013, dated 2023).
Like-named read-outs stand apart in the source and are kept apart here.

What was measured:
Type in all cases: cell-based
HCC1954 cells = assay: Cytotoxicity of compounds, CellTiter-Glo; conditions: Homo sapiens, HCC1954; Table 8; HCC-1954; read-out: (EC50)
Description: (§1) Cell lines used: Human T-cell leukemia cell line Jurkat (ATCC: TIB-152); HCC1954 (ATCC: CRL. 2338); Human Pancreatic cells lines: AsPC-1 (ATCC: CRL-1682), BxPC-3 (ATCC: CRL.1687), HPAF-II (ATCC: CRL.1997), MiaPaCa2 (ATCC: CRL.1420), PANC-1 (ATCC: CRL.1469), Capan-1 (ATCC: HTB-79), Capan-2 (ATCC: HTB-80) and the Human gastric carcinoma cell line NCI-N87 (ATCC: CRL. 5822); AML-193 (ATCC: CRL.9589), CCRF-CEM (ATCC: CCL-119), DU145 (ATCC: HTB-81), PC-3 (ATCC: CRL.1435), A-431 (ATCC: CRL.1555), HT-29 (ATCC: HTB-38), A-172 (ATCC: CRL.1620), NCI-H358 (ATCC: CRL.5807), A549 (ATCC: CCL-185), Colo-205 (ATCC: CCL-222), MDA-MB-231 (ATCC: HTB-26), OVCAR-3 (ATCC: HTB-161), OV-90 (ATCC: CRL.11732), OE19 (Sigma: 96071721), RT 112/84 (Sigma: 85061106).
(§2) On the day prior to adding compounds, HCC1954 AsPC-1, BxPC-3, HPAF-II, MiaPaCa2, PANC-1, Capan-1, Capan-2 and NCI-N87 cells were added to opaque-walled 96-well tissue culture-treated microtiter plates using complete growth medium at a density of 2500 cells/100 microlitre (uL) of medium. These adherant cell lines cells were incubated for one night at 37° C./5% CO2 to allow the cells to attach to the microtiter plate surface. On the day that compounds were added, Jurkat cells are added to separate 96-well microtiter plates at 2500 cells/100 uL using the same growth medium as HCC1954. Compound were first serially diluted using dimethyl sulfoxide, and then the prepared dilutions are added to complete growth medium at five-times the final concentration—compounds were then titrated 1:3, eight steps. A control with no compound (growth medium alone) was included on each microtiter plate in sextuplicate. The prepared compounds titrations were added (twenty-five uL/well) in triplicate. The cells and compound titrations were incubated at 37° C./5% CO2 for three nights. After the incubation, cell viability is measured using CellTiter-Glo® reagent by adding thirty uL of prepared CellTiter-Glo® to each assay well. The assay is incubated for at least twenty minutes in the dark prior to measuring emitted luminescence using a microplate luminometer (500 ms integration time). The collected relative luminescence units (RLU) are converted to % cytotoxicity using the Growth medium alone control mentioned above (% Cytotoxicity=1−[Well RLU/average medium alone control RLU]).
(§3) GraphPad Prism was used for generation of EC50 values using three parameter non-linear regression curve fitting.

Capan-1 = assay: Cytotoxicity of compounds, CellTiter-Glo; conditions: Homo sapiens, Table 5
Description: (§4) FIG. 1 summarizes the data for compounds A, B, C, D, and E when tested using the Human mammary carcinoma cell line HCC1954 or Human T-cell leukemia cell line Jurkat. FIGS. 2-6 show the cytotoxicity data plots for individual compounds A-E. Tables 2-6 summarize the results of additional cytotoxicity assays.
as §1, §2, §3

NCI-N87 = assay: Cytotoxicity of compounds, CellTiter-Glo; conditions: Homo sapiens
Description: as §4, §1, §2, §3

BxPC-3 = assay: Cytotoxicity of compounds, CellTiter-Glo; conditions: Homo sapiens
Description: as §4, §1, §2, §3

MiaPaCa2 = assay: Cytotoxicity of compounds, CellTiter-Glo; conditions: Homo sapiens
Description: as §4, §1, §2, §3

PANC-1 = assay: Cytotoxicity of compounds, CellTiter-Glo; conditions: Homo sapiens
Description: as §4, §1, §2, §3

HPAF-II = assay: Cytotoxicity of compounds, CellTiter-Glo; conditions: Homo sapiens
Description: as §4, §1, §2, §3

AsPC-1 = assay: Cytotoxicity of compounds, CellTiter-Glo; conditions: Homo sapiens
Description: as §4, §1, §2, §3

Capan-2 = assay: Cytotoxicity of compounds, CellTiter-Glo; conditions: Homo sapiens, Table 5
Description: as §4, §1, §2, §3

OVCAR-3 = assay: Cytotoxicity on various cell lines; conditions: Homo sapiens, Table 8
Description: as §4, §1, §2, §3

A-431 = assay: Cytotoxicity on various cell lines; conditions: Homo sapiens, Table 8
Description: as §4, §1, §2, §3

DU145 = assay: Cytotoxicity on various cell lines; conditions: Homo sapiens, DU-145, Table 8
Description: as §4, §1, §2, §3

PC-3 = assay: Cytotoxicity on various cell lines; conditions: Homo sapiens, Table 8
Description: as §4, §1, §2, §3

HT-29 = assay: Cytotoxicity on various cell lines; conditions: Homo sapiens, Table 8
Description: as §4, §1, §2, §3

OE19 = assay: Cytotoxicity on various cell lines; conditions: Homo sapiens, Table 8
Description: as §4, §1, §2, §3

OV-90 = assay: Cytotoxicity on various cell lines; conditions: Homo sapiens, Table 8
Description: as §4, §1, §2, §3

A-172 = assay: Cytotoxicity on various cell lines; conditions: Homo sapiens, Table 8
Description: as §4, §1, §2, §3

MDA-MB-231 = assay: Cytotoxicity on various cell lines; conditions: Homo sapiens, Table 8
Description: as §4, §1, §2, §3

NCI-H358 = assay: Cytotoxicity on various cell lines; conditions: Homo sapiens, Table 8
Description: as §4, §1, §2, §3

AML-193 = assay: Cytotoxicity on various cell lines; conditions: Table 8
Description: as §4, §1, §2, §3

CCRF-CEM = assay: Cytotoxicity on various cell lines; conditions: Homo sapiens, Table 8
Description: as §4, §1, §2, §3

RT112/84 = assay: Cytotoxicity on various cell lines; conditions: Homo sapiens, Table 8
Description: as §4, §1, §2, §3

Colo-205 = assay: Cytotoxicity on various cell lines; conditions: Homo sapiens, Table 8
Description: as §4, §1, §2, §3

CN[C@H](C(=O)N[C@H](C(=O)N(C)[C@H](/C=C(\C)C(=O)NS(=O)(=O)Cc1ccccc1)C(C)C)C(C)(C)C)C(C)(C)c1ccccc1 [Compound 14, (S,E)-N-(benzylsulfonyl)-2,5-dimethyl-4-((S)—N,3,3-trimethyl-2-((S)-3-methyl-2-(methylamino)-3-phenylbutanamido)butanamido)hex-2-enamide]
EC50 (HCC1954 cells): 0.131 nM | EC50 (Capan-1): 2.08 nM | EC50 (NCI-N87; Table 5, read-out: Cytotoxicity (EC50) NCI-N87): 0.175 nM | EC50 (NCI-N87; Table 8, read-out: (EC50)): 0.325 nM | EC50 (BxPC-3; Table 5, read-out: Cytotoxicity (EC50) BxPC-3): 0.0458 nM | EC50 (BxPC-3; Table 8, read-out: (EC50)): 0.196 nM | EC50 (MiaPaCa2; MIA PaCa-2, Table 5, MinPaCa2, read-out: Cytotoxicity (EC50) MinPaCa2): 0.204 nM | EC50 (MiaPaCa2; Table 8, Mia PaCa-2, read-out: (EC50)): 0.332 nM | EC50 (PANC-1; Table 5, read-out: Cytotoxicity (EC50) PANC-1): 1.36 nM | EC50 (PANC-1; Table 8, read-out: (EC50)): 0.759 nM | EC50 (HPAF-II; Table 5, read-out: Cytotoxicity (EC50) HPAF-II): 0.172 nM | EC50 (HPAF-II; Table 8, read-out: (EC50)): ~0.385 nM | EC50 (AsPC-1; ASPC1, Table 5, read-out: Cytotoxicity (EC50) AsPC-1): 0.206 nM | EC50 (AsPC-1; ASPC1, Table 8, read-out: (EC50)): 0.334 nM | EC50 (Capan-2): 1.1 nM | EC50 (OVCAR-3): 0.09 nM | EC50 (A-431): 0.191 nM | EC50 (DU145): 0.649 nM | EC50 (PC-3): 0.455 nM | EC50 (HT-29): 0.167 nM | EC50 (OE19): 0.21 nM | EC50 (OV-90): 0.515 nM | EC50 (A-172): 0.598 nM | EC50 (MDA-MB-231): 1.24 nM | EC50 (NCI-H358): 0.311 nM | EC50 (AML-193): 0.191 nM | EC50 (CCRF-CEM): 0.13 nM | EC50 (RT112/84): 0.178 nM | EC50 (Colo-205): ~0.317 nM
